{"source": "patent US20090181904A1", "about": "“METHOD FOR REGULATING NUTRIENT ABSORPTION WITH GINSENOSIDES” (priority 2005, published 2009)", "format_in_all_cases": "cell-based, human", "key": {"Caco2 cell monolayer": {"test_system": "Caco2 cell monolayer", "test": "Glucose absorption assay (transport across Caco2 monolayer in transwell, 14C-glucose)", "conditions": "for Transport rate (glucose): 2 days pretreatment, 25 mM glucose", "procedure": "For glucose absorption assay, 0.3 mL (10^5 cell/ml) of Caco2 cells were seeded into the apical chamber of each transwell and the basolateral chamber was added with 1 ml of culture medium (as indicated above). Costar transwell inserts (No. 3414, Corning Incorporated, NY, USA) separate each well in 24-well plates into an apical chamber (defined as a chamber above the insert) and a basolateral chamber (defined as a chamber below the insert). The culture medium in each transwell was changed every 2 days in both of the apical and basolateral chambers. To ensure the integrity of tight junction of Caco2 monolayer membrane formed in the transwell, a Trans-Epithelial Electrical Resistance (TEER) assay was conducted using Millicell®-ERS (Millipore EVOM-6; World Precision Instrument, Sarasota, Fla., USA) to measure the TEER between apical and basolateral chambers of the transwell. As the measured TEER reached 300 to 450 Ωcm^2 with the presence of differentiated brush border on the […] side of the cell on the 14th to 21st day of the culture, the Caco2 monolayer was ready for the glucose absorption test. The TEER values were taken before, during, and after each experiment to justify consistency of the data collected.\nGlucose absorption was initiated by replacing the culture medium in the basolateral chamber with fresh glucose absorption buffer and the culture medium in the apical chamber with 0.2 mL of the glucose absorption buffer containing 2 μCi/ml of radioactive D-[^14C]-glucose (60 Ci/mmol, American Radiolabeled Chemicals, ARC, St. Louis, Mo., USA) and unlabeled cold glucose to give glucose at a final concentration of 25 mM. A series of five 10-μL samples were taken from the basolateral chamber at every 5 or 10 minute intervals. In order to maintain the constant buffer volume, same amount of sample buffer were added back to the basolateral chamber after withdrawn of each sample. The samples were transferred to the filter-bottomed UniFilter plates (Perkin-Elmer, Wellesley, Mass., USA) and dried in a vacuum oven at 37° C. The bottom of the UniFilter plate was sealed and 25 μL of the counting solution were added into each well. Adhesive plate sealers were used in place of the lids and radioactivity of each sample was counted using the microplate liquid scintillation counter (TopCount, Packard NXT, Packard BioScience Company, Meriden, Conn., USA). The effect of test compounds on glucose absorption was expressed as the nmoles of glucose accumulated in the basolateral chamber with respect to time in minutes (nmol/min). The glucose absorption rate was obtained by calculating the slope of the straight line from the time zero to the end point of the graphic data of each figure."}, "Caco2 cells": {"test_system": "Caco2 cells", "test": "Cell viability assay (CCK-8)", "conditions": "10 μM and 50 μM, culture medium containing 1% FBS, 5 days", "procedure": "In order to investigate whether the purified ginsenosides were toxic to the Caco2 cells, a cell viability assay was carried out using culture medium supplemented with 1% and 10% FBS, respectively. The cells were seeded at a concentration of 5000 cells/well in a 96-well plate. To eliminate the boundary effect of the cell growth, the cells were only seeded in 60 wells of the middle area of the plate, whereas 36 wells at the surrounding area of the plate were filled only with 100 μL of PBS. Once the cells were attached to the plate, the cells were incubated in medium containing the purified ginsenosides at various concentrations (0, 0.1, 1, 10 and 50 μM). […]\nThe cell viability was determined by a Cell Counting Kit-8 (CCK-8, Dojindo Laboratories, Kumamoto, Japan) assay that was based on redox reaction of NADH in the living cells with cell proliferation reagent WST-8. […] Therefore, a greater light absorbance detected by ELISA reader at wavelength of 450 nm indicated presence of a larger number of the living cells.\nThe CCK-8 assay was carried out by adding 10 μL of the CCK-8 reagent in each well of a 96-format plate. The plate was then covered with aluminum foil and further incubated for two hours before measuring for absorbance at wavelengths of 450 nm using an ELISA reader."}, "Caco-2 cell monolayer [1]": {"test_system": "Caco-2 cell monolayer", "test": "Arginine absorption assay (transport across Caco-2 monolayer, 3H-arginine)", "conditions": "for Transport rate (arginine): 10 mM L-arginine", "procedure": "(§1) In measuring transport of arginine across the Caco-2 cell monolayer, both sides of the transwells were washed with arginine incubation buffer consisting of: 137 mM NaCl, 10 mM Hepes, 0.3 mM NaH2PO4, 0.3 mM K2HPO4, 5.4 mM KCl, 2.8 mM CaCl2, 1 mM MgSO4, 10 mM glucose, adjusted to pH 7.4. Then, the cell layer was pre-incubated in the incubation buffer at 37° C. for 1 h. The volumes of incubation buffer were 0.2 mL and 0.9 mL in the apical and basolateral chambers, respectively. The cells were replaced with fresh incubation medium in both chambers prior to the transport experiment. The transport experiment was initiated by replacing the incubation solution on the apical side with solution containing 10 mM of L-arginine in which 0.125 μCi/mL of L-[^3H]-arginine was included. At designated time intervals, 10 μL-solution samples were removed from the basolateral side and radioactivity of each sample was counted using a microplate liquid scintillation counter (TopCount, Packard NXT). During the experiment, when a 10 μL-solution sample was removed from the basolateral side every time, 10 μL buffer was supplemented to keep the volume constant. The uptake of [^3H]-mannitol was used to correct for nonspecific transport of molecules across the monolayer membrane. Results were expressed as the nanomoles of arginine transport across the Caco-2 cell monolayers with respect to time in minutes (nmol/min)."}, "Caco-2 cell monolayer [2]": {"test_system": "Caco-2 cell monolayer", "test": "Tryptophan absorption assay (transport across Caco-2 monolayer)", "procedure": "as §1\nThe experimental procedures similar to those in Example 2 were used for measuring the uptake of tryptophan molecules across the Caco-2 membrane, except using a tryptophan incubation buffer consisting of 137 mM choline chloride, 10 mM Hepes, 0.6 mM KH2PO4, 5.4 mM KCl, 2.8 mM CaCl2, 1 mM MgSO4, and 10 mM glucose, and having its pH adjusted to 7.4. Results were expressed as the nanomoles of tryptophan transport across the Caco-2 cell monolayers with respect to time in minutes (nmol/min)."}}, "data": [{"compound": "CC(C)=CCC[C@](C)(O[C@@H]1O[C@H](CO)[C@@H](O)[C@H](O)[C@H]1O)[C@H]1CC[C@]2(C)[C@@H]1[C@H](O)C[C@@H]1[C@@]3(C)CC[C@H](O)C(C)(C)[C@@H]3[C@@H](O[C@@H]3O[C@H](CO)[C@@H](O)[C@H](O)[C@H]3O)C[C@]12C", "note": "[Rg1, ginsenoside Rg1]", "values": [{"measurement": "effect on glucose absorption (in words)", "setting": "Caco2 cell monolayer", "result": "inhibitory effect"}, {"measurement": "Percentage (glucose transport, control = 100)", "setting": "Caco2 cell monolayer; compound 0.01 μM", "result": 51.88, "unit": "%"}, {"measurement": "glucose transportation (in words, FIG. 2)", "setting": "Caco2 cell monolayer; compound 0.01 μM to 1 μM", "result": "clearly inhibited"}, {"measurement": "Transport rate (glucose)", "setting": "Caco2 cell monolayer; compound 0.01 μM", "result": "1.1317 ± 0.1299", "unit": "nmol/min"}, {"measurement": "Percentage (glucose transport, control = 100)", "setting": "Caco2 cell monolayer; compound 0.1 μM", "result": 58.51, "unit": "%"}, {"measurement": "Transport rate (glucose)", "setting": "Caco2 cell monolayer; compound 0.1 μM", "result": "1.2763 ± 0.1907", "unit": "nmol/min"}, {"measurement": "Percentage (glucose transport, control = 100)", "setting": "Caco2 cell monolayer; compound 1 μM", "result": 96.68, "unit": "%"}, {"measurement": "Transport rate (glucose)", "setting": "Caco2 cell monolayer; compound 1 μM", "result": "2.1089 ± 0.2097", "unit": "nmol/min"}, {"measurement": "cytotoxicity to Caco2 cells (cell viability)", "setting": "Caco2 cells", "result": "exhibited cytotoxicity"}, {"measurement": "Percentage (arginine transport, control = 100)", "setting": "Caco-2 cell monolayer [1]; compound 0.01 μM", "result": 126.89, "unit": "%"}, {"measurement": "Transport rate (arginine)", "setting": "Caco-2 cell monolayer [1]; compound 0.01 μM", "result": "13.5583 ± 1.1940", "unit": "nmol/min"}, {"measurement": "Percentage (arginine transport, control = 100)", "setting": "Caco-2 cell monolayer [1]; compound 0.1 μM", "result": 210.91, "unit": "%"}, {"measurement": "Transport rate (arginine)", "setting": "Caco-2 cell monolayer [1]; compound 0.1 μM", "result": "22.5370 ± 0.8912", "unit": "nmol/min"}, {"measurement": "Percentage (arginine transport, control = 100)", "setting": "Caco-2 cell monolayer [1]; compound 1 μM", "result": 171.51, "unit": "%"}, {"measurement": "Transport rate (arginine)", "setting": "Caco-2 cell monolayer [1]; compound 1 μM", "result": "18.3265 ± 0.8965", "unit": "nmol/min"}, {"measurement": "* (arrow: regulatory effect on tryptophan transport)", "setting": "Caco-2 cell monolayer [2]; compound 0.001 μM", "result": "↑"}, {"measurement": "Percentage (tryptophan transport, control = 100)", "setting": "Caco-2 cell monolayer [2]; compound 0.001 μM", "result": 130.17, "unit": "%"}, {"measurement": "Transport rate (tryptophan)", "setting": "Caco-2 cell monolayer [2]; compound 0.001 μM", "result": "16.180 ± 2.8700", "unit": "nmol/min"}, {"measurement": "tryptophan transport rate (in words)", "setting": "Caco-2 cell monolayer [2]; compound 0.001 μM to 0.1 μM", "result": "increased"}, {"measurement": "* (arrow: regulatory effect on tryptophan transport)", "setting": "Caco-2 cell monolayer [2]; compound 0.01 μM", "result": "↑"}, {"measurement": "Percentage (tryptophan transport, control = 100)", "setting": "Caco-2 cell monolayer [2]; compound 0.01 μM", "result": 133.47, "unit": "%"}, {"measurement": "Transport rate (tryptophan)", "setting": "Caco-2 cell monolayer [2]; compound 0.01 μM", "result": "16.590 ± 1.4190", "unit": "nmol/min"}, {"measurement": "* (arrow: regulatory effect on tryptophan transport)", "setting": "Caco-2 cell monolayer [2]; compound 0.1 μM", "result": "↑"}, {"measurement": "Percentage (tryptophan transport, control = 100)", "setting": "Caco-2 cell monolayer [2]; compound 0.1 μM", "result": 142.48, "unit": "%"}, {"measurement": "Transport rate (tryptophan)", "setting": "Caco-2 cell monolayer [2]; compound 0.1 μM", "result": "17.710 ± 0.5948", "unit": "nmol/min"}]}]}
